Measurements taken from ChEMBL document CHEMBL5321278, “Discovery of Aminoratjadone Derivatives as Potent Noncovalent CRM1 Inhibitors” (J Med Chem, 2023).
Values belong to the compound of their own block, whether it stands above or below them. Active and inactive are the calls of the source. No cut-off for these calls is given here. Where a SMILES comes first, the peptide text is derived from it. The star is where a group is joined. Cbz = O=C(OCc1ccccc1)*

Key:
Exportin-1 [1] = target: T1, Exportin-1 (Homo sapiens, UniProt O14980); assay: Inhibition of CRM1 nuclear export in human HeLa cells assessed as CRM1 depletion at 1 uM measured after 6 hrs; format: cell-based
Exportin-1 [2] = target: T1, Exportin-1; assay: Inhibition of CRM1 (unknown origin) assessed as binding of GST-tagged NES peptide
Exportin-1 [3] = target: T1, Exportin-1; assay: Inhibition of CRM1 nuclear export in human HeLa cells assessed as CRM1 depletion at 10 uM measured after 6 hrs; format: cell-based
Exportin-1 [4] = target: T1, Exportin-1; assay: Inhibition of CRM1 nuclear export in human HeLa cells assessed as CRM1 depletion at 50 uM measured after 6 hrs; format: cell-based
Exportin-1 [5] = target: T1, Exportin-1; assay: Binding affinity to CRM1 (unknown origin) assessed as dissociation constant by microscale thermophoresis assay
Exportin-1 [6] = target: T1, Exportin-1; assay: Inhibition of CRM1-mediated nuclear export in human HeLa cells expressing mCherry-tagged NES reporter at 1 uM incubated for 3 hrs by confocal microscopy analysis; format: cell-based
HCT-116 [7] = assay: Induction of apoptosis in human HCT-116 cells assessed as increase in cleaved PARP-1 level by Western blot analysis; format: functional, cell-based
HCT-116 [8] = assay: Induction of apoptosis in human HCT-116 cells assessed as viable cells at 0.5 uM measured after 24 hrs by AnnexinV-FITC/propidium iodide staining based flow cytometric analysis (reference value: 89.32%); format: functional; settings: read-out: Activity
HCT-116 [9] = assay: Induction of apoptosis in human HCT-116 cells assessed as early apoptotic at 0.5 uM measured after 24 hrs by AnnexinV-FITC/propidium iodide staining based flow cytometric analysis (reference value: 3.55%); format: functional
HCT-116 [10] = assay: Induction of apoptosis in human HCT-116 cells assessed as late apoptotic at 0.5 uM measured after 24 hrs by AnnexinV-FITC/propidium iodide staining based flow cytometric analysis (reference value: 4.91%); format: functional
HCT-116 [11] = assay: Induction of apoptosis in human HCT-116 cells assessed as necrotic at 0.5 uM measured after 24 hrs by AnnexinV-FITC/propidium iodide staining based flow cytometric analysis (reference value: 2.22%); format: functional
HCT-116 [12] = assay: Induction of apoptosis in human HCT-116 cells assessed as viable cells at 1 uM measured after 24 hrs by AnnexinV-FITC/propidium iodide staining based flow cytometric analysis (reference value: 89.32%); format: functional; settings: read-out: Activity
HCT-116 [13] = assay: Induction of apoptosis in human HCT-116 cells assessed as early apoptotic at 1 uM measured after 24 hrs by AnnexinV-FITC/propidium iodide staining based flow cytometric analysis (reference value: 3.55%); format: functional
HCT-116 [14] = assay: Induction of apoptosis in human HCT-116 cells assessed as late apoptotic at 1 uM measured after 24 hrs by AnnexinV-FITC/propidium iodide staining based flow cytometric analysis (reference value: 4.91%); format: functional
HCT-116 [15] = assay: Induction of apoptosis in human HCT-116 cells assessed as necrotic at 1 uM measured after 24 hrs by AnnexinV-FITC/propidium iodide staining based flow cytometric analysis (reference value: 2.22%); format: functional
RKO [16] = assay: Induction of apoptosis in human RKO cells assessed as viable cells at 0.5 uM measured after 24 hrs by AnnexinV-FITC/propidium iodide staining based flow cytometric analysis (reference value: 92.51%); format: functional; settings: read-out: Activity
RKO [17] = assay: Induction of apoptosis in human RKO cells assessed as early apoptotic at 0.5 uM measured after 24 hrs by AnnexinV-FITC/propidium iodide staining based flow cytometric analysis (reference value: 1.79%); format: functional
RKO [18] = assay: Induction of apoptosis in human RKO cells assessed as late apoptotic at 0.5 uM measured after 24 hrs by AnnexinV-FITC/propidium iodide staining based flow cytometric analysis (reference value: 4.70%); format: functional
RKO [19] = assay: Induction of apoptosis in human RKO cells assessed as necrotic at 0.5 uM measured after 24 hrs by AnnexinV-FITC/propidium iodide staining based flow cytometric analysis (reference value: 1%); format: functional
RKO [20] = assay: Induction of apoptosis in human RKO cells assessed as viable cells at 1 uM measured after 24 hrs by AnnexinV-FITC/propidium iodide staining based flow cytometric analysis (reference value: 92.51%); format: functional; settings: read-out: Activity
RKO [21] = assay: Induction of apoptosis in human RKO cells assessed as early apoptotic at 1 uM measured after 24 hrs by AnnexinV-FITC/propidium iodide staining based flow cytometric analysis (reference value: 1.79%); format: functional
RKO [22] = assay: Induction of apoptosis in human RKO cells assessed as late apoptotic at 1 uM measured after 24 hrs by AnnexinV-FITC/propidium iodide staining based flow cytometric analysis (reference value: 4.70%); format: functional
RKO [23] = assay: Induction of apoptosis in human RKO cells assessed as necrotic at 1 uM measured after 24 hrs by AnnexinV-FITC/propidium iodide staining based flow cytometric analysis (reference value: 1%); format: functional
Exportin-1 [24] = target: T1, Exportin-1; assay: Non-covalent inhibition of CRM1 (unknown origin) assessed as reversal of GST-tagged NES peptide binding
Exportin-1 [25] = target: T1, Exportin-1; assay: Inhibition of CRM1-mediated nuclear export in human HeLa cells expressing mCherry-tagged NES reporter incubated for 3 hrs by confocal microscopy analysis; format: cell-based; settings: for inhibition: dose 0.09-3 µM
[26] = test system: Exportin-1 (Homo sapiens), O14980 [C528S]; assay: Inhibition of CRM1 C528S mutant-mediated nuclear export in human HeLa cells expressing mCherry-tagged NES reporter at 1 uM incubated for 3 hrs by confocal microscopy analysis; format: cell-based
Exportin-1 [27] = target: T1, Exportin-1; assay: Inhibition of CRM1 nuclear export in human HeLa cells assessed as CRM1 depletion measured after 6 hrs; format: cell-based; settings: for inhibition: dose 0.1-9 µM
HeLa [28] = assay: Downregulation of CRM1 expression in human HeLa cells at 9 uM incubated for 6 hrs by Western blot analysis; format: functional, cell-based
HeLa [29] = assay: Downregulation of CRM1 mRNA expression in human HeLa cells at 9 uM incubated for 6 hrs; format: functional, cell-based
HCT-116 [30] = assay: Cytotoxicity against human HCT-116 cells assessed as reduction in cell viability incubated for 72 hrs by CCK-8 assay; format: functional, cell-based; settings: HCT-116, 72 h
Exportin-1 [31] = target: T1, Exportin-1; assay: Inhibition of CRM1-mediated nuclear export in human HCT-116 cells assessed as inhibition of nuclear export of cargoes at 1 uM; format: cell-based
[32] = test system: Exportin-1 (Homo sapiens), O14980 [C528S]; assay: Inhibition of CRM1 C528S mutant-mediated nuclear export in human HCT-116 cells assessed as inhibition of nuclear export of cargoes at 1 uM; format: cell-based
RKO [33] = assay: Cytotoxicity against human RKO cells assessed as reduction in cell viability incubated for 72 hrs by CCK-8 assay; format: functional, cell-based
HCT-116 [34] = assay: Cytotoxicity against SiRNA mediated CRM1 knockdown human HCT-116 cells assessed as reduction in cell viability at 0.3 to 1 uM incubated for 72 hrs by CCK-8 assay; format: functional, cell-based; settings: dose 0.3-1 µM
RKO [35] = assay: Cytotoxicity against SiRNA mediated CRM1 knockdown human RKO cells assessed as reduction in cell viability at 0.3 to 1 uM incubated for 72 hrs by CCK-8 assay; format: functional, cell-based; settings: dose 0.3-1 µM
Exportin-1 [36] = target: T1, Exportin-1; assay: Binding affinity to CRM1 in human HCT-116 cells assessed as thermal stabilization at 50 uM at 50 to 68 degreeC incubated for 3 mins by […] analysis; format: cell-based
HCT-116 [37] = assay: Inhibition of colony formation in human HCT-116 cells assessed as decrease in colonies upto 0.5 uM incubated for 72 hrs by crystal violet staining based assay; format: functional, cell-based
RKO [38] = assay: Inhibition of colony formation in human RKO cells assessed as decrease in colonies upto 0.5 uM incubated for 72 hrs by crystal violet staining based assay; format: functional, cell-based
RKO [39] = assay: Induction of apoptosis in human RKO cells assessed as increase in cleaved PARP-1 level by Western blot analysis; format: functional, cell-based
Exportin-1 [40] = target: T1, Exportin-1; assay: Non-covalent inhibition of CRM1 (unknown origin) assessed as reversal of GST-tagged NES peptide binding pretreated with CRM1 followed by compound addition and measured after 2 hrs

T1 sequence (O14980 whole entry): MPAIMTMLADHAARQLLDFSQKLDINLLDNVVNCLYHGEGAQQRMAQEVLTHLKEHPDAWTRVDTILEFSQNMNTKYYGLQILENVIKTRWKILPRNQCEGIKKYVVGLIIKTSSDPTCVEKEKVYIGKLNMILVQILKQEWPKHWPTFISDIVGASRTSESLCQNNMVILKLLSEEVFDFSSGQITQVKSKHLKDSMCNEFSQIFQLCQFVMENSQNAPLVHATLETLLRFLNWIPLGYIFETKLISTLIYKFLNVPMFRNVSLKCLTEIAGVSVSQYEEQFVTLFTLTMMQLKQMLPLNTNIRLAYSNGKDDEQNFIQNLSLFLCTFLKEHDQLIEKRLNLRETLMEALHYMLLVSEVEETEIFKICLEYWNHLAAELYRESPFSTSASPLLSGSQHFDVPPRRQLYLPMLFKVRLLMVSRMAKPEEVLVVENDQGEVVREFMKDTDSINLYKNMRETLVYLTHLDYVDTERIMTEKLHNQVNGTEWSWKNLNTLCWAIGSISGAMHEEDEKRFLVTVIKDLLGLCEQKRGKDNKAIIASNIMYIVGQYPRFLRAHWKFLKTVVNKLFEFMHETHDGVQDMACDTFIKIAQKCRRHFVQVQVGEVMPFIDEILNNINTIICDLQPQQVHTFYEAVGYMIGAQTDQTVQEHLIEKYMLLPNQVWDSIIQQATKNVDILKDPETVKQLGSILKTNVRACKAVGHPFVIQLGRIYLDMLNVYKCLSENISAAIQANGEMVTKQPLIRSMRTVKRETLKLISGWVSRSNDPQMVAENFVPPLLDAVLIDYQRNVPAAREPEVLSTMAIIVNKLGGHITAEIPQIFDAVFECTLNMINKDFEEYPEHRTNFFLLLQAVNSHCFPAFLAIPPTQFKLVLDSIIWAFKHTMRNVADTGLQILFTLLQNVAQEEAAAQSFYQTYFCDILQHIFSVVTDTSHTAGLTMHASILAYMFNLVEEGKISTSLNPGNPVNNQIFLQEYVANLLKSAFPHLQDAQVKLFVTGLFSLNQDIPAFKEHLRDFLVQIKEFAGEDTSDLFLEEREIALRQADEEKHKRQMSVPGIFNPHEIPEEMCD
Chain of Exportin-1 (Homo sapiens), O14980 [C528S] (O14980 whole entry C528S): as the sequence (O14980 whole entry) above, with C528S counted along it

Compound: O=C(/C=C\n1cnc(-c2cc(C(F)(F)F)cc(C(F)(F)F)c2)n1)NNc1cnccn1
inhibition (Exportin-1 [1]): inactive

Compound: C/C=C/[C@@H]1O[C@H]([C@@H](N)/C=C/C=C(\C)C[C@@H](C)/C=C(C)\C=C\[C@H](O)C[C@@H](CC(=O)NCCO)NCCO)C[C@H](O)[C@@H]1C
inhibition (Exportin-1 [2]): inactive | inhibition (Exportin-1 [1]): inactive

Compound: CCN(CC)CCCC(C)Nc1ccnc2cc(Cl)ccc12 (configuration not stated)
inhibition (Exportin-1 [3]): Active

Compound: CC(C)C[C@@H](C=O)NC(=O)[C@H](CC(C)C)NC(=O)[C@H](CC(C)C)NC(=O)OCc1ccccc1 (Cbz-Leu-Leu-Leu-aldehyde)
inhibition (Exportin-1 [4]): Active

Compound: C/C=C/[C@@H]1O[C@H]([C@H](N)/C=C/C=C(\C)C[C@@H](C)/C=C(C)\C=C\[C@H](O)C[C@H](N)CC(=O)O)C[C@H](O)[C@@H]1C
Kd (Exportin-1 [5]): 5.9 µM

The next lines start with results.

inhibition (Exportin-1 [2]): inactive | inhibition (Exportin-1 [6]): inactive | inhibition (Exportin-1 [1]): inactive
Compound: C/C=C/[C@@H]1O[C@H]([C@@H](N)/C=C/C=C(\C)C[C@@H](C)/C=C(C)\C=C\[C@H](O)C[C@H](N)CC(N)=O)C[C@H](O)[C@@H]1C

inhibition (Exportin-1 [24]): Active | Kd (Exportin-1 [5]): 4.6 µM | inhibition (Exportin-1 [2]): Active | IC50 (Exportin-1 [25]): 280 nM | inhibition (Exportin-1 [25]): Dose-Dependent Effect | inhibition [26]: Active | IC50 (Exportin-1 [27]): 270 nM | inhibition (Exportin-1 [27]): Active | inhibition (Exportin-1 [31]): Active | inhibition [32]: inactive | Activity (Exportin-1 [36]): Active
Compound: C/C=C/[C@@H]1O[C@H]([C@H](N)/C=C/C=C(\C)C[C@@H](C)/C=C(C)\C=C\[C@H](O)C[C@H](N)CC(=O)OC)C[C@H](O)[C@@H]1C
Activity (HCT-116 [7]): Active | viability at 0.5 µM (HCT-116 [8]): 78% | Activity (HCT-116 [9]): 5.73% | Activity (HCT-116 [10]): 12.47% | Activity (HCT-116 [11]): 3.75% | viability at 1 µM (HCT-116 [12]): 62.4% | Activity (HCT-116 [13]): 4.32% | Activity (HCT-116 [14]): 25.08% | Activity (HCT-116 [15]): 8.17% | viability at 0.5 µM (RKO [16]): 78.8% | Activity (RKO [17]): 3.34% | Activity (RKO [18]): 11.78% | Activity (RKO [19]): 6.09% | viability at 1 µM (RKO [20]): 70.9% | Activity (RKO [21]): 2.78% | Activity (RKO [22]): 18.43% | Activity (RKO [23]): 7.93% | Activity (HeLa [28]): inactive | Activity (HeLa [29]): inactive | IC50 (HCT-116 [30]): 120 nM | IC50 (RKO [33]): 190 nM | Activity (HCT-116 [34]): Active | Activity (RKO [35]): Active | inhibition (HCT-116 [37]): Active | inhibition (RKO [38]): Active | Activity (RKO [39]): Active

inhibition (Exportin-1 [24]): Active | inhibition (Exportin-1 [40]): Active | inhibition (Exportin-1 [2]): Active | IC50 (Exportin-1 [25]): 340 nM | inhibition (Exportin-1 [25]): Dose-Dependent Effect | inhibition [26]: Active | IC50 (Exportin-1 [27]): 550 nM | inhibition (Exportin-1 [27]): Active | inhibition (Exportin-1 [31]): Active | inhibition [32]: inactive
Compound: C/C=C/[C@@H]1O[C@H]([C@@H](N)/C=C/C=C(\C)C[C@@H](C)/C=C(C)\C=C\[C@H](O)C[C@H](N)CC(=O)OC)C[C@H](O)[C@@H]1C
Activity (HeLa [28]): inactive | Activity (HeLa [29]): inactive | IC50 (HCT-116 [30]): 320 nM | IC50 (RKO [33]): 300 nM | Activity (HCT-116 [34]): Active | Activity (RKO [35]): Active
